Experimental data reported in ChEMBL document CHEMBL5576094, “A Diterpenoid of the Medicinal Plant Andrographis paniculata Targets Cutaneous TRPV3 Channel and Relieves Itch” (J Nat Prod, 2024).
Activity calls are given as the source filed them. The rule behind the calls is not given here.

Experiments:
[1] = target: T1, Transient receptor potential cation channel subfamily V member 3 (Homo sapiens, UniProt Q8NET8); assay: Inhibition of human TRPV3 expressed in CHO cells assessed as reduction in 2-APB induced channel current at -80 mV by whole-cell patch clamp electrophysiology; format: cell-based
T1 sequence (Q8NET8 whole entry): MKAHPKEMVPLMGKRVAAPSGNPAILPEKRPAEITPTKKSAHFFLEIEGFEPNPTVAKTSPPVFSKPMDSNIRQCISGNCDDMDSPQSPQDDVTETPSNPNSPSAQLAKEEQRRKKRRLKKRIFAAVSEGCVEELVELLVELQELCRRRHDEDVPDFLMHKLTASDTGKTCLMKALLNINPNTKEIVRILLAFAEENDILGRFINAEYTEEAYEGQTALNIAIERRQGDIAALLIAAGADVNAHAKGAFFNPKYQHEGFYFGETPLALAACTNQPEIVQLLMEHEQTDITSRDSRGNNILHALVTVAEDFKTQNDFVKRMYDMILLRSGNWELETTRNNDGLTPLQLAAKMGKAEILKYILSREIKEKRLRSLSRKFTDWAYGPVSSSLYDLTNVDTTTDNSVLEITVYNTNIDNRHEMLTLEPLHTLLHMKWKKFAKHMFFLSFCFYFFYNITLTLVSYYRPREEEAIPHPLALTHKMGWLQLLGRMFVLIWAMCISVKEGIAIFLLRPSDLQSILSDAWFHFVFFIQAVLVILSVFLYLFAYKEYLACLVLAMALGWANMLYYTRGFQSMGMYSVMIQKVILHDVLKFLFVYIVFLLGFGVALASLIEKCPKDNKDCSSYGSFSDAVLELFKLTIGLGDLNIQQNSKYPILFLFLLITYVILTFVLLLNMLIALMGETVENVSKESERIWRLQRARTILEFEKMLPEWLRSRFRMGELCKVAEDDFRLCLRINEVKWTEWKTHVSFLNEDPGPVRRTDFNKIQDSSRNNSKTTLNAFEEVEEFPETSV

[2] = Induction of pruritic reaction in ICR mouse assessed as number of scratching bouts at 30 uM, ID measured within 30 mins (reference value: 6 +/- 1 No_Unit); format: toxicity; conditions: other, 0.5 h
[3] = target: T2, Transient receptor potential cation channel subfamily V member 3 (Homo sapiens) (UniProt Q8NET8); assay: Inhibition of human TRPV3 expressed in CHO cells assessed as reduction in 2-APB induced channel current at 10 uM at -80 mV by whole-cell patch clamp electrophysiology; format: cell-based
T2 sequence (whole entry): T1 sequence (Q8NET8 whole entry)

[4] = target: Transient receptor potential cation channel subfamily V member 4 (Homo sapiens) (UniProt Q9HBA0); assay: Inhibition of human TRPV4 expressed in CHO cells assessed as reduction in GSK1016790A-induced intracellular calcium flux at 20 uM measured for 60 mins by Fluo-4-AM dye based fluorescence assay; format: cell-based
[5] = target: T3, Acid-sensing ion channel 3 (Homo sapiens) (UniProt Q9UHC3); assay: Inhibition of human ASIC3 expressed in Xenopus Oocytes at 20 uM at holding potential of -50 mV by whole-cell electrophysiology; format: cell-based; conditions: Oocyte
T3 sequence (whole entry): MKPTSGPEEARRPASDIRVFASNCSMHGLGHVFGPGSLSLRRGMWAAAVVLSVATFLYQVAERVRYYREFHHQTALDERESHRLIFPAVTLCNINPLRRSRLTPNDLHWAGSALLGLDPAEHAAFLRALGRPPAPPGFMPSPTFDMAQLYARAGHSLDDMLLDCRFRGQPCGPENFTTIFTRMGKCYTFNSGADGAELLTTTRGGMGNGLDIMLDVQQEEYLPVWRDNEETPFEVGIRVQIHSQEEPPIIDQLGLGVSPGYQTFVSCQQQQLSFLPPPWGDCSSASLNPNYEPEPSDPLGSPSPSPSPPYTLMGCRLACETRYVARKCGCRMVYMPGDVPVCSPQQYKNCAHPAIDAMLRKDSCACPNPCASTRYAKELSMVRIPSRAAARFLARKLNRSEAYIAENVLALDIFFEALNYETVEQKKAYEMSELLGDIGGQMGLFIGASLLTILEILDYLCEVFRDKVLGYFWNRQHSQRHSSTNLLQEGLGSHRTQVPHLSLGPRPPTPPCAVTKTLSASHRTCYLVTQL

[6] = target: T2, Transient receptor potential cation channel subfamily V member 3 (Homo sapiens); assay: Inhibition of human TRPV3 expressed in CHO cells assessed as reduction in 2-APB-induced intracellular calcium flux at 20 uM measured for 60 mins by Fluo-4-AM dye based fluorescence assay; format: cell-based
Mus musculus [7] = species: Mus musculus; assay: Antipruritic activity in histamine-induced scratching ICR mouse model assessed as number of scratching bouts at 30 uM, ID pretreated for 30 mins followed by histamine stimulation and measured for 30 mins (reference value: 123 +/- 6); format: functional; conditions: time 60 min, 1 h
[8] = Induction of pruritic reaction in ICR mouse assessed as number of scratching bouts at 100 uM, ID measured within 30 mins (reference value: 6 +/- 1 No_Unit); format: toxicity; conditions: other, 0.5 h
Mus musculus [9] = species: Mus musculus; assay: Antipruritic activity in histamine-induced scratching ICR mouse model assessed as inhibition of neck scratching behavior at 3 uM, ID pretreated for 30 mins followed by histamine stimulation and measured after 10 to 30 mins; format: functional, organism-based; conditions: time 40-60 min
Mus musculus [10] = species: Mus musculus; assay: Antipruritic activity in histamine-induced scratching ICR mouse model assessed as inhibition of neck scratching behavior at 3 uM, ID pretreated for 30 mins followed by histamine stimulation and measured for 10 mins relative to control; format: functional; conditions: 40 min
Mus musculus [11] = species: Mus musculus; assay: Antipruritic activity in carvacrol-induced scratching ICR mouse model assessed as inhibition of neck scratching behavior at 100 uM, ID pretreated for 30 mins followed by carvacrol stimulation and measured for 30 mins relative to control; format: functional; conditions: 1 h, time 60 min
Mus musculus [12] = species: Mus musculus; assay: Antipruritic activity in histamine-induced scratching ICR mouse model assessed as number of scratching bouts at 3 uM, ID pretreated for 30 mins followed by histamine stimulation and measured for 30 mins (reference value: 123 +/- 6); format: functional; conditions: time 60 min, 1 h
[13] = target: T2, Transient receptor potential cation channel subfamily V member 3 (Homo sapiens); assay: Inhibition of human TRPV3 expressed in CHO cells assessed as reduction in 2-APB induced channel current at -80 mV by whole-cell patch clamp electrophysiology relative to control; format: cell-based
[14] = target: T2, Transient receptor potential cation channel subfamily V member 3 (Homo sapiens); assay: Inhibition of human TRPV3 expressed in CHO cells assessed as reduction in 2-APB induced maximal channel current at voltage ramps from -80 to +80 mV by whole-cell patch clamp electrophysiology relative to control; format: cell-based
HaCaT = assay: Cytotoxicity against human HaCaT cells assessed as reduction in cell viability measured after 24 hrs by MTT assay; format: toxicity, cell-based
[15] = target: T2, Transient receptor potential cation channel subfamily V member 3 (Homo sapiens); assay: Inhibition of TRPV3 in human HaCaT cells assessed as reduction in carvacrol-induced calcium influx measured for 60 mins by Fluo-4-AM dye based fluorescence assay relative to control; format: cell-based
Mus musculus [16] = species: Mus musculus; assay: Antipruritic activity in histamine-induced scratching ICR mouse model assessed as number of scratching bouts at 0.3 uM, ID pretreated for 30 mins followed by histamine stimulation and measured for 30 mins (reference value: 123 +/- 6); format: functional; conditions: time 60 min, 1 h
[17] = target: T4, Acid-sensing ion channel 1 (Rattus norvegicus) (UniProt P55926); assay: Inhibition of rat ASIC1a expressed in Xenopus Oocytes at 20 uM at holding potential of -50 mV by whole-cell electrophysiology; format: cell-based; conditions: Oocyte
T4 sequence (whole entry): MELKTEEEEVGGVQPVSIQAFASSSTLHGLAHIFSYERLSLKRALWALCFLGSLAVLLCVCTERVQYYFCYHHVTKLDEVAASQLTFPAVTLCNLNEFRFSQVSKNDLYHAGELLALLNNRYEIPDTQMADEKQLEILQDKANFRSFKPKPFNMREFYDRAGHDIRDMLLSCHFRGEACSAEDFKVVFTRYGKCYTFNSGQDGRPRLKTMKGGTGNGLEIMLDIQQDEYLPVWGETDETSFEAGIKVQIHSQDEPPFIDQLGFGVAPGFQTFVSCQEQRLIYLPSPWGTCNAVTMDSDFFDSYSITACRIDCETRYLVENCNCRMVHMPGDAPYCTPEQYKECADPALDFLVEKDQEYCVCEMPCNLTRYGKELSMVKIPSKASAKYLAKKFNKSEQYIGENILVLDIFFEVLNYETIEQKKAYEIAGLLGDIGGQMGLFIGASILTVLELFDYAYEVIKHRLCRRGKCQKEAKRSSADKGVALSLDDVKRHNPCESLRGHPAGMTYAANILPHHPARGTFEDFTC

Mus musculus [18] = species: Mus musculus; assay: Antipruritic activity in carvacrol-induced scratching ICR mouse model assessed as number of scratching bouts at 100 uM, ID pretreated for 30 mins followed by carvacrol stimulation and measured for 30 mins (reference value: 174 +/- 7); format: functional; conditions: time 60 min, 1 h
[19] = target: Transient receptor potential cation channel subfamily A member 1 (Rattus norvegicus) (UniProt Q6RI86); assay: Inhibition of rat TRPA1 expressed in CHO cells assessed as reduction in AITC-induced intracellular calcium flux at 20 uM measured for 60 mins by Fluo-4-AM dye based fluorescence assay; format: cell-based
[20] = target: T1, Transient receptor potential cation channel subfamily V member 3; assay: Inhibition of human TRPV3 expressed in CHO cells assessed as reduction in 2-APB induced channel current at +80 mV by whole-cell patch clamp electrophysiology; format: cell-based
[21] = target: T2, Transient receptor potential cation channel subfamily V member 3 (Homo sapiens); assay: Inhibition of human TRPV3 expressed in CHO cells assessed as reduction in 2-APB induced channel current at 10 uM at +80 mV by whole-cell patch clamp electrophysiology; format: cell-based
Mus musculus [22] = species: Mus musculus; assay: Antipruritic activity in carvacrol-induced scratching ICR mouse model assessed as number of scratching bouts at 30 uM, ID pretreated for 30 mins followed by carvacrol stimulation and measured for 30 mins (reference value: 174 +/- 7); format: functional; conditions: time 60 min, 1 h
[23] = target: T2, Transient receptor potential cation channel subfamily V member 3 (Homo sapiens); assay: Irreversible inhibition of human TRPV3 expressed in CHO cells assessed as reduction in 2-APB induced channel current at 10 uM at -80 mV incubated prior to compound washout followed by 2-APB addition by whole-cell patch clamp electrophysiology; format: cell-based
[24] = target: T2, Transient receptor potential cation channel subfamily V member 3 (Homo sapiens); assay: Irreversible inhibition of human TRPV3 expressed in CHO cells assessed as reduction in 2-APB induced channel current at 10 uM at +80 mV incubated prior to compound washout followed by 2-APB addition by whole-cell patch clamp electrophysiology; format: cell-based
[25] = target: T1, Transient receptor potential cation channel subfamily V member 3; assay: Inhibition of TRPV3 in human HaCaT cells assessed as reduction in carvacrol-induced calcium influx measured for 60 mins by Fluo-4-AM dye based fluorescence assay; format: cell-based
[26] = target: Transient receptor potential cation channel subfamily V member 1 (Rattus norvegicus) (UniProt O35433); assay: Inhibition of rat TRPV1 expressed in CHO cells assessed as reduction in capsaicin-induced intracellular calcium flux at 20 uM measured for 60 mins by Fluo-4-AM dye based fluorescence assay; format: cell-based
[27] = target: T2, Transient receptor potential cation channel subfamily V member 3 (Homo sapiens); assay: Inhibition of human TRPV3 expressed in CHO cells assessed as reduction in 2-APB induced channel current at +80 mV by whole-cell patch clamp electrophysiology relative to control; format: cell-based
Mus musculus [28] = assay: Antipruritic activity in histamine-induced scratching ICR mouse model assessed as number of scratching bouts at 10 mg/kg, po administered via gavage pretreated for 30 mins followed by histamine stimulation and measured for 30 mins (reference value: 123 +/- 6); format: functional; conditions: time 60 min, 1 h
Mus musculus [29] = assay: Antipruritic activity in histamine-induced scratching ICR mouse model assessed as inhibition of neck scratching behavior at 10 mg/kg, po administered via gavage pretreated for 30 mins followed by histamine stimulation and measured for 30 mins relative to control; format: functional; conditions: 1 h, time 60 min

Chain of Transient receptor potential cation channel subfamily V member 4 (Homo sapiens) (Q9HBA0 whole entry): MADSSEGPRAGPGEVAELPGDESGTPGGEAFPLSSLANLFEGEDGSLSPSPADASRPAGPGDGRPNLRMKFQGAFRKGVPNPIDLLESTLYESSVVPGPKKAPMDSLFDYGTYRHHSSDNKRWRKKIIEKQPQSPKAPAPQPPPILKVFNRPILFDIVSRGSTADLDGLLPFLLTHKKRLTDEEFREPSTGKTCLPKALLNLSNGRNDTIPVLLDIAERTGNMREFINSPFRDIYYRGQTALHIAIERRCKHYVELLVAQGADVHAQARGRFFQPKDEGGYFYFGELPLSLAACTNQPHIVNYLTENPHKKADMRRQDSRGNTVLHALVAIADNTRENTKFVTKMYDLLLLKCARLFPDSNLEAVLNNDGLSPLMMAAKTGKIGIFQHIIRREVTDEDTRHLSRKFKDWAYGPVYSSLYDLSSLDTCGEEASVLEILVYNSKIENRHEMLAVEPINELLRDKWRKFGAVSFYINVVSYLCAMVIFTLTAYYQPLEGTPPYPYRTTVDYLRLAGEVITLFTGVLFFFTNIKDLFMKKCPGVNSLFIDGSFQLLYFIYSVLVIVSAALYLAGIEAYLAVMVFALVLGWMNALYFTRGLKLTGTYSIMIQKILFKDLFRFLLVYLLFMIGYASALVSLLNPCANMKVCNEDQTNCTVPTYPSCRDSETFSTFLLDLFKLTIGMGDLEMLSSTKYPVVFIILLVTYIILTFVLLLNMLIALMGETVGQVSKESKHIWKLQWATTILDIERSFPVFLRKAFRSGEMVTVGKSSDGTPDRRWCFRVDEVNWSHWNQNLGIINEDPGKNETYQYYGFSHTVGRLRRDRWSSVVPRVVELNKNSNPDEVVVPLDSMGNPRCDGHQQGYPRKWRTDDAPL
Chain of Transient receptor potential cation channel subfamily V member 1 (Rattus norvegicus) (O35433 whole entry): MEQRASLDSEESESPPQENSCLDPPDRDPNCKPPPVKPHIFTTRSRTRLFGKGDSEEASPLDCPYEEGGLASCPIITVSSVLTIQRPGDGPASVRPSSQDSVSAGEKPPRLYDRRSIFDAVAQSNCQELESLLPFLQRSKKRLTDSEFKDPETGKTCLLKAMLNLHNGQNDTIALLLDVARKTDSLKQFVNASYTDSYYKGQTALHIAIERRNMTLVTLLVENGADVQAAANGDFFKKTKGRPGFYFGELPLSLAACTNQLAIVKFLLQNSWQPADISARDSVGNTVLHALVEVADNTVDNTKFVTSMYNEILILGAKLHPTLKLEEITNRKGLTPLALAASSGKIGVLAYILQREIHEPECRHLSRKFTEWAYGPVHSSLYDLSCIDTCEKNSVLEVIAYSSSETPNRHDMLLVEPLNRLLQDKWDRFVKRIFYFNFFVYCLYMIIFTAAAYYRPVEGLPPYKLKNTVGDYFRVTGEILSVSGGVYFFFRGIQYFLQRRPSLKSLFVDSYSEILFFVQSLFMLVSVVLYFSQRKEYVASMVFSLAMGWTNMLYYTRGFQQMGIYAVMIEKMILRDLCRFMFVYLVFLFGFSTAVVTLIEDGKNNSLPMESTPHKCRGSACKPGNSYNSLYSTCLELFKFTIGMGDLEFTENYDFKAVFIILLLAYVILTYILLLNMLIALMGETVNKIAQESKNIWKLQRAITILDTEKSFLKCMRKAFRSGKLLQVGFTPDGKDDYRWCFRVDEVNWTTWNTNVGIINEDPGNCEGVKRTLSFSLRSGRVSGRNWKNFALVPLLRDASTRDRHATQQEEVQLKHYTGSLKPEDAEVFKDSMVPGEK
Chain of Transient receptor potential cation channel subfamily A member 1 (Rattus norvegicus) (Q6RI86 whole entry): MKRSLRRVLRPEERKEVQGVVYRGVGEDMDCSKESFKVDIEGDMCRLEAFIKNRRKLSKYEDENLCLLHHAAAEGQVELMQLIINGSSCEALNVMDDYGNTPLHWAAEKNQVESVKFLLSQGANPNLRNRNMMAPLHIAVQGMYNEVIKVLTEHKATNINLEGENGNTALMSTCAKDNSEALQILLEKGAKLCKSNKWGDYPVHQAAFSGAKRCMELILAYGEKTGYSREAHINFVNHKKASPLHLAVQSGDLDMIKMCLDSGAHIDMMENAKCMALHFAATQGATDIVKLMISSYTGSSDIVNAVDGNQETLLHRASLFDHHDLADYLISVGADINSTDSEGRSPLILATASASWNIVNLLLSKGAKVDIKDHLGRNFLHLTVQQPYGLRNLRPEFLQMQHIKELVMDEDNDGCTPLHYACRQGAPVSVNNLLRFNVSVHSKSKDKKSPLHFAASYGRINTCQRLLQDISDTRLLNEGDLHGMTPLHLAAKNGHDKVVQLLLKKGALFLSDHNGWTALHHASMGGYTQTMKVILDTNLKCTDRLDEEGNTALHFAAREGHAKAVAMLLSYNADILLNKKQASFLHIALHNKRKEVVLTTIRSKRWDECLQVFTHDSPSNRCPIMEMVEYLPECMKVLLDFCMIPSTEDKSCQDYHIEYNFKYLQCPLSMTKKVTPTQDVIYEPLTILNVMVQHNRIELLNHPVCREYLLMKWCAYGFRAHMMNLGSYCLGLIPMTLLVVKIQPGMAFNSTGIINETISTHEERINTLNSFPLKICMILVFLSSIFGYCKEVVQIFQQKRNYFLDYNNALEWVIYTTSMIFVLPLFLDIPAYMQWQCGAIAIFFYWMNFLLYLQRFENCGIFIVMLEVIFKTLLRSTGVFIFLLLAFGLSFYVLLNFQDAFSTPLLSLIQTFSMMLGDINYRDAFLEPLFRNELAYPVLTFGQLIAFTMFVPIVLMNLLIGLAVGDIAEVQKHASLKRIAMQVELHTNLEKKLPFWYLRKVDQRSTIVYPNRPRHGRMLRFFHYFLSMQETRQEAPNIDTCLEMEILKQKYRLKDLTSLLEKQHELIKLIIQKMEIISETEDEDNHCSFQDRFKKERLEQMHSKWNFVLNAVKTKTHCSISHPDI

C=C1CC[C@@H]2[C@](C)(CO)[C@H](O)CC[C@@]2(C)[C@@H]1/C=C/C1=CCOC1=O
IC50 [1]: 560 nM
Activity [2]: 8.1
inhibition [3]: Active
inhibition [4]: inactive
inhibition [5]: inactive
inhibition [6]: Active
Activity (Mus musculus [7]): 59
Activity [8]: 10.6
inhibition (Mus musculus [9]): Active
inhibition in vivo at 3 µM (Mus musculus [10]): ~40%
inhibition in vivo at 100 µM (Mus musculus [11]): ~26%
Activity (Mus musculus [12]): 57
Imax [13]: 50%
fold change (FC) [14]: 2
Activity (HaCaT): Non-Toxic
Imax [15]: 43%
Activity (Mus musculus [16]): 95
inhibition [17]: inactive
Activity (Mus musculus [18]): 129
inhibition [19]: inactive
IC50 [20]: 800 nM
inhibition [21]: Active
Activity (Mus musculus [22]): 178
inhibition [23]: Active
inhibition [24]: Active
IC50 [25]: 850 nM
inhibition [26]: inactive
Imax [27]: 49%

CCOC(=O)N1CCC(=C2c3ccc(Cl)cc3CCc3cccnc32)CC1 [LORATADINE]
Activity (Mus musculus [28]): 72
inhibition in vivo at 10 mg/kg (Mus musculus [29]): ~40%
